{"source": "ChEMBL document CHEMBL4014283", "about": "“Structural insights of SmKDAC8 inhibitors: Targeting Schistosoma epigenetics through a combined structure-based 3D QSAR, in vitro and synthesis strategy” (Bioorg Med Chem, 2017)", "data": [{"biological_target": "T1, Histone deacetylase 8 (Schistosoma mansoni) (UniProt A5H660)", "T1 sequence (whole entry)": "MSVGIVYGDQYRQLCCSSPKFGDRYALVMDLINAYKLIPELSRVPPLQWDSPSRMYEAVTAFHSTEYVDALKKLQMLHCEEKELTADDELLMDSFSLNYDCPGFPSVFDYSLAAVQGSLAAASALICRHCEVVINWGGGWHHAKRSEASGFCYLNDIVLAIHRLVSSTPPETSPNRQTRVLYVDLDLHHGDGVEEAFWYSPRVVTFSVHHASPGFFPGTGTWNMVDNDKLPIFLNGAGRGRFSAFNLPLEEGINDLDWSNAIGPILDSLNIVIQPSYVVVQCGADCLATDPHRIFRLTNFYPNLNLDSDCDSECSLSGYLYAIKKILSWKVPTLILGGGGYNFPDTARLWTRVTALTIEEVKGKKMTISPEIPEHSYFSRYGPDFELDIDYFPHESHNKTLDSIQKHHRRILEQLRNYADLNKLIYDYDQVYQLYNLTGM", "experiment": "Inhibition of Schistosoma mansoni KDAC8 at 30 uM using (FAM)-labeled peptide as substrate after 60 mins by microfluidic assay", "units": {"inhibition": "%"}, "values": [{"smiles": "CC(C)[C@@H]1NC(=O)[C@@H]2CCCN2C(=O)[C@H]2CCCN2C(=O)C[C@H](C(=O)OCc2ccccc2)NC1=O", "inhibition": 0}, {"smiles": "CC(C)[C@@H]1NC(=O)[C@H]2CCCN2C(=O)[C@@H]2CCCN2C(=O)C[C@@H](C(=O)NCCCSCCN)NC1=O", "inhibition": 0}, {"smiles": "CC(C)[C@@H]1NC(=O)[C@H]2CCCN2C(=O)[C@@H]2CCCN2C(=O)C[C@@H](C(=O)NCCS)NC1=O", "inhibition": 0}, {"smiles": "CC(C)[C@@H]1NC(=O)[C@@H]2CCCN2C(=O)[C@H]2CCCN2C(=O)C[C@@H](C(=O)NCCCO)NC1=O", "inhibition": 0}, {"smiles": "CC(C)[C@@H]1NC(=O)[C@H]2CCCN2C(=O)[C@@H]2CCCN2C(=O)C[C@H](C(=O)NCCCO)NC1=O", "inhibition": 0}, {"smiles": "CC(C)[C@@H]1NC(=O)[C@@H]2CCCN2C(=O)[C@H]2CCCN2C(=O)C[C@H](C(=O)NCCS)NC1=O", "inhibition": 8.3}, {"smiles": "CC(C)[C@@H]1NC(=O)[C@H]2CCCN2C(=O)[C@@H]2CCCN2C(=O)C[C@@H](C(=O)OCc2ccccc2)NC1=O", "inhibition": 0}, {"smiles": "CC(C)[C@@H]1NC(=O)[C@@H]2CCCN2C(=O)[C@H]2CCCN2C(=O)C[C@H](C(=O)NCCCS(C)(=O)=O)NC1=O", "inhibition": 0}, {"smiles": "COC(=O)CCCNC(=O)[C@@H]1CC(=O)N2CCC[C@H]2C(=O)N2CCC[C@@H]2C(=O)N[C@@H](C(C)C)C(=O)N1", "inhibition": 0}, {"smiles": "CC(C)[C@@H]1NC(=O)[C@@H]2CCCN2C(=O)[C@H]2CCCN2C(=O)C[C@H](C(=O)NCCSSCCN)NC1=O", "inhibition": 0}, {"smiles": "CC(C)[C@@H]1NC(=O)[C@@H]2CCCN2C(=O)[C@H]2CCCN2C(=O)C[C@@H](C(=O)NCCS)NC1=O", "inhibition": 0}, {"smiles": "CC(C)[C@@H]1NC(=O)[C@H]2CCCN2C(=O)[C@@H]2CCCN2C(=O)C[C@H](C(=O)NCCC[S+](C)[O-])NC1=O", "note": "(some centres not stated)", "inhibition": 0}, {"smiles": "O=C(O)CCCCN1C(=O)[C@H](CCC(=O)NC(c2ccccc2)(c2ccccc2)c2ccccc2)N=C(c2ccccc2)c2ccccc21", "inhibition": 0}, {"smiles": "CC(C)[C@@H]1NC(=O)[C@@H]2CCCN2C(=O)[C@H]2CCCN2C(=O)C[C@@H](C(=O)NCCCC(=O)NO)NC1=O", "inhibition": 21.2}, {"smiles": "CC(C)[C@@H]1NC(=O)[C@H]2CCCN2C(=O)[C@@H]2CCCN2C(=O)C[C@H](C(=O)NCCCS(C)(=O)=O)NC1=O", "inhibition": 0}, {"smiles": "CC(C)[C@@H]1NC(=O)[C@@H]2CCCN2C(=O)[C@H]2CCCN2C(=O)C[C@H](C(=O)NCCCN)NC1=O", "inhibition": 0}, {"smiles": "CC(C)[C@@H]1NC(=O)[C@@H]2CCCN2C(=O)[C@H]2CCCN2C(=O)C[C@@H](C(=O)NCCSSCCN)NC1=O", "inhibition": 0}, {"smiles": "CC(C)[C@@H]1NC(=O)[C@H]2CCCN2C(=O)[C@@H]2CCCN2C(=O)C[C@H](C(=O)NCCCC(=O)O)NC1=O", "inhibition": 0}, {"smiles": "CC(C)[C@@H]1NC(=O)[C@H]2CCCN2C(=O)[C@@H]2CCCN2C(=O)C[C@@H](C(=O)O)NC1=O", "inhibition": 0}, {"smiles": "COC(=O)CCCNC(=O)[C@@H]1CC(=O)N2CCC[C@@H]2C(=O)N2CCC[C@H]2C(=O)N[C@@H](C(C)C)C(=O)N1", "inhibition": 0}, {"smiles": "CSCCCNC(=O)[C@H]1CC(=O)N2CCC[C@@H]2C(=O)N2CCC[C@H]2C(=O)N[C@@H](C(C)C)C(=O)N1", "inhibition": 0}, {"smiles": "CC(C)[C@@H]1NC(=O)[C@@H]2CCCN2C(=O)[C@H]2CCCN2C(=O)C[C@H](C(=O)NCCC[S+](C)[O-])NC1=O", "note": "(some centres not stated)", "inhibition": 0}, {"smiles": "CC(C)[C@@H]1NC(=O)[C@@H]2CCCN2C(=O)[C@H]2CCCN2C(=O)C[C@H](C(=O)NCCCS)NC1=O", "inhibition": 14.6}, {"smiles": "CC(C)[C@@H]1NC(=O)[C@H]2CCCN2C(=O)[C@@H]2CCCN2C(=O)C[C@H](C(=O)NCCCSCCN)NC1=O", "inhibition": 0}, {"smiles": "CC(C)[C@@H]1NC(=O)[C@H]2CCCN2C(=O)[C@@H]2CCCN2C(=O)C[C@@H](C(=O)NCCCS)NC1=O", "inhibition": 1.45}, {"smiles": "CC(C)[C@@H]1NC(=O)[C@H]2CCCN2C(=O)[C@@H]2CCCN2C(=O)C[C@@H](C(=O)NCCCSSCCCNC(=O)[C@@H]2CC(=O)N3CCC[C@H]3C(=O)N3CCC[C@@H]3C(=O)N[C@@H](C(C)C)C(=O)N2)NC1=O", "inhibition": 0}, {"smiles": "CC(C)[C@@H]1NC(=O)[C@H]2CCCN2C(=O)[C@@H]2CCCN2C(=O)C[C@@H](C(=O)NCCCS(C)(=O)=O)NC1=O", "inhibition": 0}]}]}
